# Data reported in US10787452B2 (Vertex Pharmaceuticals Incorporated, priority 2012, dated 2020).
# Test system: HCT116 colorectal cancer cells
# Experiment: Cisplatin sensitization assay (96 h cell viability MTS);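 also: compound concentration needed to lower the Cisplatin-alone IC50 by a set fold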
# Format: cell-based
# Conditions: 96 h MTS, compound plus Cisplatin
# Outline: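 HCT116 cells were co-treated with compound and cisplatin, each in 2-fold serial dilutions from a 10 μM top final concentration, as a full matrix. After 96 h at 37 °C, 5% CO2, viability was read by MTS following a 1 h incubation with reagent.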
row,Structure (SMILES),Cisplatin Sensitization Assay
1,"Nc1nn2cc(F)cnc2c1C(=O)Nc1cnccc1N1CCN2[C@@H](CCS2(=O)=O)C1 [I-N-247, (S)-2-amino-N-(4-(1,1-dioxidotetrahydro-2H-isothiazolo[2,3-a]pyrazin-5(3H)-yl)pyridin-3-yl)-6-fluoropyrazolo[1,5-a]pyrimidine-3-carboxamide]",+++ (Compounds with a Cisplatin sensitization value of <0.02 μM are marked with “+++.”)
2,"Nc1nn2cc(F)cnc2c1C(=O)Nc1cncc(F)c1N1CCN2C(=O)OC[C@@H]2C1 [I-N-248, (S)-2-amino-6-fluoro-N-(5-fluoro-4-(3-oxotetrahydro-1H-oxazolo[3,4-a]pyrazin-7(3H)-yl)pyridin-3-yl)pyrazolo[1,5-a]pyrimidine-3-carboxamide]",++ (Compounds with a Cisplatin sensitization value >0.02 μM but <0.2 μM are marked with “++.”)
3,Nc1nn2cc(F)cnc2c1C(=O)Nc1cnccc1N1CCN(C(=O)C2COC2)CC1 [I-N-249],+++ (Compounds with a Cisplatin sensitization value of <0.02 μM are marked with “+++.”)
4,"Nc1nn2cc(F)cnc2c1C(=O)Nc1cncc(F)c1N1CCS(=O)(=O)CC1 [I-N-250, 2-amino-N-(4-(1,1-dioxidothiomorpholino)-5-fluoropyridin-3-yl)-6-fluoropyrazolo[1,5-a]pyrimidine-3-carboxamide]",++ (Compounds with a Cisplatin sensitization value >0.02 μM but <0.2 μM are marked with “++.”)
5,"CC(=O)N1CC2(CCN(c3ccncc3NC(=O)c3c(N)nn4cc(F)cnc34)CC2)C1 [I-N-251, N-(4-(2-acetyl-2,7-diazaspiro[3.5]nonan-7-yl)pyridin-3-yl)-2-amino-6-fluoropyrazolo[1,5-a]pyrimidine-3-carboxamide]",+++ (Compounds with a Cisplatin sensitization value of <0.02 μM are marked with “+++.”)
6,"CC1(C)CN(c2ccncc2NC(=O)c2c(N)nn3cc(F)cnc23)CCS1(=O)=O [I-N-252, 2-amino-N-(4-(2,2-dimethyl-1,1-dioxidothiomorpholino)pyridin-3-yl)-6-fluoropyrazolo[1,5-a]pyrimidine-3-carboxamide]",+++ (Compounds with a Cisplatin sensitization value of <0.02 μM are marked with “+++.”)
7,"Nc1nn2cc(F)cnc2c1C(=O)Nc1cnccc1N1CCCC2(COC2)C1 [I-N-253, N-(4-(2-oxa-6-azaspiro[3.5]nonan-6-yl)pyridin-3-yl)-2-amino-6-fluoropyrazolo[1,5-a]pyrimidine-3-carboxamide]",+++ (Compounds with a Cisplatin sensitization value of <0.02 μM are marked with “+++.”)
8,"Nc1nn2cc(F)cnc2c1C(=O)Nc1cnccc1N1CCC2(CCNC2)CC1 [I-N-255, N-(4-(2,8-diazaspiro[4.5]decan-8-yl)pyridin-3-yl)-2-amino-6-fluoropyrazolo[1,5-a]pyrimidine-3-carboxamide]",++ (Compounds with a Cisplatin sensitization value >0.02 μM but <0.2 μM are marked with “++.”)
9,"Cc1nnc(N2CCN(c3ccncc3NC(=O)c3c(N)nn4cc(F)cnc34)CC2)o1 [I-N-256, 2-amino-6-fluoro-N-(4-(4-(5-methyl-1,3,4-oxadiazol-2-yl)piperazin-1-yl)pyridin-3-yl)pyrazolo[1,5-a]pyrimidine-3-carboxamide]",++ (Compounds with a Cisplatin sensitization value >0.02 μM but <0.2 μM are marked with “++.”)
10,"CC(=O)N1CCC2(CCN(c3ccncc3NC(=O)c3c(N)nn4cc(F)cnc34)CC2)C1 [I-N-257, N-(4-(2-acetyl-2,8-diazaspiro[4.5]decan-8-yl)pyridin-3-yl)-2-amino-6-fluoropyrazolo[1,5-a]pyrimidine-3-carboxamide]",+++ (Compounds with a Cisplatin sensitization value of <0.02 μM are marked with “+++.”)
11,"Nc1nn2cc(F)cnc2c1C(=O)Nc1cnccc1N1CCN2C(=O)CC[C@@H]2C1 [I-N-258, (R)-2-amino-6-fluoro-N-(4-(6-oxohexahydropyrrolo[1,2-a]pyrazin-2(1H)-yl)pyridin-3-yl)pyrazolo[1,5-a]pyrimidine-3-carboxamide]",++ (Compounds with a Cisplatin sensitization value >0.02 μM but <0.2 μM are marked with “++.”)
12,"Cn1ccc2cncc(NC(=O)c3c(N)nn4cc(F)cnc34)c21 [I-N-259, 2-amino-6-fluoro-N-(1-methyl-1H-pyrrolo[3,2-c]pyridin-7-yl)pyrazolo[1,5-a]pyrimidine-3-carboxamide]",+ (Compounds with a Cisplatin sensitization value >0.2 μM but <5 μM are marked with “+.”)
13,"Cc1nonc1N1CCN(c2ccncc2NC(=O)c2c(N)nn3cc(F)cnc23)CC1 [I-N-260, 2-amino-6-fluoro-N-(4-(4-(4-methyl-1,2,5-oxadiazol-3-yl)piperazin-1-yl)pyridin-3-yl)pyrazolo[1,5-a]pyrimidine-3-carboxamide]",+++ (Compounds with a Cisplatin sensitization value of <0.02 μM are marked with “+++.”)
14,"COC(=O)N1CCN(c2c(F)cncc2NC(=O)c2c(N)nn3cc(F)cnc23)CC1 [I-N-261, methyl-4-(3-(2-amino-6-fluoropyrazolo[1,5-a]pyrimidine-3-carboxamido)-5-fluoropyridin-4-yl)piperazine-1-carboxylate]",+++ (Compounds with a Cisplatin sensitization value of <0.02 μM are marked with “+++.”)
15,"CC(=O)N1CCCC12CCN(c1ccncc1NC(=O)c1c(N)nn3cc(F)cnc13)CC2 [I-N-262, N-(4-(1-acetyl-1,8-diazaspiro[4.5]decan-8-yl)pyridin-3-yl)-2-amino-6-fluoropyrazolo[1,5-a]pyrimidine-3-carboxamide]",+++ (Compounds with a Cisplatin sensitization value of <0.02 μM are marked with “+++.”)
16,"Cc1nncn1-c1ccncc1NC(=O)c1c(N)nn2cc(F)cnc12 [I-N-263, 2-amino-6-fluoro-N-(4-(3-methyl-4H-1,2,4-triazol-4-yl)pyridin-3-yl)pyrazolo[1,5-a]pyrimidine-3-carboxamide]",+ (Compounds with a Cisplatin sensitization value >0.2 μM but <5 μM are marked with “+.”)
17,"Nc1nn2cc(F)cnc2c1C(=O)Nc1cnccc1N1CCCCCC1 [I-N-264, 2-amino-N-(4-(azepan-1-yl)pyridin-3-yl)-6-fluoropyrazolo[1,5-a]pyrimidine-3-carboxamide]",+ (Compounds with a Cisplatin sensitization value >0.2 μM but <5 μM are marked with “+.”)
18,"Cc1nnc(C2CCN(c3ccncc3NC(=O)c3c(N)nn4cc(F)cnc34)CC2)o1 [I-N-265, 2-amino-6-fluoro-N-(4-(4-(5-methyl-1,3,4-oxadiazol-2-yl)piperidin-1-yl)pyridin-3-yl)pyrazolo[1,5-a]pyrimidine-3-carboxamide]",++ (Compounds with a Cisplatin sensitization value >0.02 μM but <0.2 μM are marked with “++.”)
19,"COC1CCN(c2ccncc2NC(=O)c2c(N)nn3cc(F)cnc23)CC1 [I-N-266, 2-amino-6-fluoro-N-(4-(4-methoxypiperidin-1-yl)pyridin-3-yl)pyrazolo[1,5-a]pyrimidine-3-carboxamide]",+++ (Compounds with a Cisplatin sensitization value of <0.02 μM are marked with “+++.”)
20,"CN(C)CC1CCN(c2ccncc2NC(=O)c2c(N)nn3cc(F)cnc23)CC1 [I-N-267, 2-amino-N-(4-(4-((dimethylamino)methyl)piperidin-1-yl)pyridin-3-yl)-6-fluoropyrazolo[1,5-a]pyrimidine-3-carboxamide]",+++ (Compounds with a Cisplatin sensitization value of <0.02 μM are marked with “+++.”)
21,"Nc1nn2cc(F)cnc2c1C(=O)Nc1cnccc1N1CCC(c2nnco2)CC1 [I-N-268, N-(4-(4-(1,3,4-oxadiazol-2-yl)piperidin-1-yl)pyridin-3-yl)-2-amino-6-fluoropyrazolo[1,5-a]pyrimidine-3-carboxamide]",+++ (Compounds with a Cisplatin sensitization value of <0.02 μM are marked with “+++.”)
22,"Cc1ncn(-c2ccncc2NC(=O)c2c(N)nn3cc(F)cnc23)c1C [I-N-269, 2-amino-N-(4-(4,5-dimethyl-1H-imidazol-1-yl)pyridin-3-yl)-6-fluoropyrazolo[1,5-a]pyrimidine-3-carboxamide]",++ (Compounds with a Cisplatin sensitization value >0.02 μM but <0.2 μM are marked with “++.”)
23,"Nc1nn2cc(F)cnc2c1C(=O)Nc1cncc(F)c1N1CCCCC1 [I-N-270, 2-amino-6-fluoro-N-(5-fluoro-4-(piperidin-1-yl)pyridin-3-yl)pyrazolo[1,5-a]pyrimidine-3-carboxamide]",+++ (Compounds with a Cisplatin sensitization value of <0.02 μM are marked with “+++.”)
24,"Nc1nn2cc(F)cnc2c1C(=O)Nc1cnccc1N1CCC(S(=O)(=O)N2CCC2)CC1 [I-N-271, 2-amino-N-(4-(4-(azetidin-1-ylsulfonyl)piperidin-1-yl)pyridin-3-yl)-6-fluoropyrazolo[1,5-a]pyrimidine-3-carboxamide]",+++ (Compounds with a Cisplatin sensitization value of <0.02 μM are marked with “+++.”)
25,"CN1CCOC2(CCN(c3c(F)cncc3NC(=O)c3c(N)nn4cc(F)cnc34)CC2)C1 [I-N-272, 2-amino-6-fluoro-N-(5-fluoro-4-(4-methyl-1-oxa-4,9-diazaspiro[5.5]undecan-9-yl)pyridin-3-yl)pyrazolo[1,5-a]pyrimidine-3-carboxamide]",+++ (Compounds with a Cisplatin sensitization value of <0.02 μM are marked with “+++.”)
26,"Nc1nn2cc(F)cnc2c1C(=O)Nc1cncc(F)c1N1CCC(S(=O)(=O)N2CCN3CCC2CC3)CC1 [I-N-273, N-(4-(4-(1,4-diazabicyclo[3.2.2]nonan-4-ylsulfonyl)piperidin-1-yl)-5-fluoropyridin-3-yl)-2-amino-6-fluoropyrazolo[1,5-a]pyrimidine-3-carboxamide]",+++ (Compounds with a Cisplatin sensitization value of <0.02 μM are marked with “+++.”)
27,"Nc1nn2cc(F)cnc2c1C(=O)Nc1cncc(F)c1N1CCN(C(=O)C2CCOC2)CC1 (stereo not drawn) [I-N-274, 2-amino-6-fluoro-N-(5-fluoro-4-(4-(tetrahydrofuran-3-carbonyl)piperazin-1-yl)pyridin-3-yl)pyrazolo[1,5-a]pyrimidine-3-carboxamide]",+++ (Compounds with a Cisplatin sensitization value of <0.02 μM are marked with “+++.”)
